Earlier results, collected in US12649947B2, “Method of treatment using genetic predictors of a response to treatment with CRHR1 antagonists” (HMNC Holding GmbH, priority 2015, dated 2026).

System: mice overexpressing CRH in the forebrain

COCC(COC)Nc1nc(C)nc2c(-c3ccc(Cl)cc3Cl)c(C)nn12 [DMP696]
effect on REM sleep enhancement: could reverse the REM enhancement
